Measured values from patent publication US5684151A, “1-arylsulphonyl, arylcarbonyl and 1-arylphosphonyl-3-phenyl-1,4,5,6-tetrahydropyridazines” (priority 1995, dated 1997).
Like-named read-outs stand apart in the source and are kept apart here.

System: mouse (MC3T3-E1) and human (TE-85) osteoblast-line cells
Type: cell-based
Source text: Compounds of the present invention have utility to treat osteoporosis through enhancement of bone calcification rather than traditional approaches which generally involve inhibition of bone degeneration or resorption. The compounds of the present invention have been evaluated as stimulators of proliferation of osteoblast cell and chick calivaria bone organ culture which is predictive of enhancement of bone mass and bone formation in vivo.
The action of select compounds to stimulate osteoblast growth was measured in culture by estimating the rate of DNA synthesis by the rate of ^3 H-thymidine incorporation into DNA. Only cells undergoing mitosis synthesized new DNA and thus only these cells incorporated the radiolabelled DNA-specific thymidine. The stimulation of the proliferation and differentiation of bone-forming cells, osteoblasts, was a prerequisite for an increase in bone formation and bone mass. The ability of agents to increase osteoblast proliferation and differentiation can be predicted by their action on cultured osteoblast-line cells in vitro. In this test, mouse (MC3T3-E1) and human (TE-85) osteoblast-line cells (American Type Tissue Culture Collection, #CRL 1543, Rockville, Md. cloned by Sudo et al., Koriyama, Japan) were cultured in vitro and the effect of various agents were tested on osteoblast cell proliferation. Cells were harvested from large culture flasks where they were allowed to grow to near confluency using trypsin. The cells were plated into 96 well culture plates, 1600 cells in 100 μL per well in Dulbencos Modified Eagle's Medium (DMEM) with 25 mM HEPES buffer, L-glutamine (584 mg/L); D-glucose (4.5 g/L) supplemented with fetal bovine sera (10%); penicillin (100 units/mL) and streptomycin (100 mcg/mL); sodium pyruvate (10 μM final concentration). The cells were allowed to plate overnight in DMEM containing 10% fetal bovine sera at 37° C. in an atmosphere of 5% CO2/95% air. Following their placement into 96 well culture plates all the osteoblast-line cells, either the MC3T3-E1 or the TE-85 cell lines, were allowed an additional 24 hours preincubation period in media containing only 0.1% fetal bovine sera.
Twenty hours later, a 20 μL aliquot of media containing 0.4 μCi of ^3 H-thymidine was added to each culture well. The cells were then incubated an additional 4 hours. The incubation was terminated by aspirating the media and washing with HBSS (Hank's Balanced Salt Solution). The cells were then treated with 100 μL of 0.5% trypsin and 5.3 mM EDTA for 30 minutes at room temperature. The cells were then aspirated onto glass fiber filter and washed with water. The radioactivity on the filters was quantified by liquid scintillation spectroscopy. The rate of ^3 H-thymidine incorporation into DNA was then utilized as an index of cell proliferation. The results are shown in Table 13 expressed as % times control where the control is 100%. […]

SMILES | Osteoblast Cell Proliferation, 3H-thymidine incorporation vs control (100%) (10^-7) [%] | Osteoblast Cell Proliferation, 3H-thymidine incorporation vs control (100%) (10^-8) [%] | Osteoblast Cell Proliferation, 3H-thymidine incorporation vs control (100%) (10^-9) [%] | Osteoblast Cell Proliferation, 3H-thymidine incorporation vs control (100%) (10^-10) [%] | Osteoblast Cell Proliferation, 3H-thymidine incorporation vs control (100%) (10^-6) [%]
S=C(c1cc(Cl)cc(Cl)c1)N1CCCC(c2ccccc2)=N1 [Compound 247] | 118 | 122 | 122 | 129 | 
CS(=O)(=O)c1ccc(S(=O)(=O)N2CCCC(c3ccc(Cl)c(Cl)c3)=N2)cc1 [Compound 275, 3-(3,4-Dichlorophenyl)-1-(4-methylsulfonylbenzenesulfonyl)-1,4,5,6-tetrahydropyridazine] | 145 | 153 | 128 | 136 | 
S=C(c1cc(Cl)cc(Cl)c1)N1CCCC(c2ccc(Cl)c(Cl)c2)=N1 [Compound 244] | 119 | 134 | 129 | 144 | 
S=C(c1ccc(Cl)c(Cl)c1)N1CCCC(c2ccc(Cl)c(Cl)c2)=N1 [Compound 243] | 118 | 92 | 96 | 89 | 
CCCCc1ccc(C2=NN(C(=O)c3ccc(Cl)c(Cl)c3)CCC2)cc1 [Compound 231] | 115 | 103 | 145 | 133 | 
Cc1ccc(/C=C/S(=O)(=O)N2CCCC(c3ccc(Cl)c(Cl)c3)=N2)cc1 [Compound 169] | 131 | 133 | 134 | 195 | 128
CCCCc1ccc(C2=NN(P(=O)(OC)c3ccccc3)CCC2)cc1 (stereo not drawn) [Compound 251] | 104 | 111 | 91 | 111 | 109
S=C(c1ccc(Cl)c(Cl)c1)N1CCCC(c2ccccc2)=N1 [Compound 237, 1-(3,4-dichlorothiobenzoyl)-3-phenyl-1,4,5,6-tetrahydropyridazine] | 113 | 113 | 110 | 119 | 
CC1CC(c2ccccc2)=NN(C(=O)c2ccc(Cl)c(Cl)c2)C1 (racemic) [Compound 233, (R,S)-1-(3,4-dichlorobenzoyl)-5-methyl-3-phenyl-1,4,5,6-tetrahydropyridazine] | 130 | 132 | 130 | 138 | 
O=S(=O)(c1cccc2ccccc12)N1CCCC(c2ccc(Cl)cc2)=N1 [Compound 44] | 107 | 105 | 95 | 87 | 86
O=S(=O)(/C=C/c1ccccc1)N1CCCC(c2ccc3c(c2)CCCC3)=N1 [Compound 176] | 94 | 109 | 113 | 109 | 59
CC1CC(c2ccccc2)=NN(C(=S)c2ccc(Cl)c(Cl)c2)C1 (racemic) [Compound 248, (R,S)-1-(3,4-dichlorothiobenzoyl)-5-methyl-3-phenyl-1,4,5,6-tetrahydropyridazine] | 142 | 130 | 140 | 149 | 
O=C(c1cc(Cl)cc(Cl)c1)N1CCCC(c2ccccc2)=N1 [Compound 232] | 110 | 115 | 115 | 121 | 
CC1(C)CC(c2ccccc2)=NN(C(=O)c2ccc(Cl)c(Cl)c2)C1 [Compound 234] | 95 | 84 | 84 | 111 | 
Nc1c(Br)cc(C2=NN(C(=O)c3ccc(Cl)c(Cl)c3)CCC2)cc1Br [Compound 265, (3-4-Amino-3,5-dibromophenyl)-1-(3,4-dichlorobenzoyl)-1,4,5,6-tetrahydropyridazine] | 110 | 112 | 112 | 115 | 
Fc1ccc(C(=S)N2CCCC(c3ccc(Cl)c(Cl)c3)=N2)cc1F [Compound 236, 3-(3,4-Dichlorophenyl)-1-(3,4-difluorothiobenzoyl)-1,4,5,6-tetrahydropyridazine] | 109 | 102 | 106 | 115 | 
O=C(c1ccc(F)c(Br)c1)N1CCCC(c2ccccc2)=N1 [Compound 229] | 104 | 86 | 99 | 114 | 
CCCCCCc1ccc(S(=O)(=O)N2CCCC(c3ccc(Cl)c(Cl)c3)=N2)cc1 [Compound 121] | 123 | 122 | 120 | 181 | 120
CC1CC(c2ccccc2)=NN(C(=O)c2ccc(F)c(F)c2)C1 (racemic) [Compound 235, (R,S)-1-(3,4-difluorobenzoyl)-5-methyl-3-phenyl-1,4,5,6-tetrahydropyridazine] | 86 | 87 | 92 | 88 | 
O=S(=O)(/C=C/c1ccc2ccccc2c1)N1CCCC(c2ccc(Cl)c(Cl)c2)=N1 [Compound 171] | 110 | 121 | 118 | 129 | 72
COP(=O)(c1ccccc1)N1CCCC(c2ccc(Br)cc2)=N1 (stereo not drawn) [Compound 260] | 115 | 105 | 99 | 90 | 100
COP(=O)(c1ccccc1)N1CCCC(c2ccc(F)cc2)=N1 (stereo not drawn) [Compound 258] | 107 | 108 | 107 | 98 | 107
